# Measured values as given in patent US20240408158A1 (LINYI UNIVERSITY, priority 2023, published 2024).
# Legend:
# [1] = system: mouse bone marrow red cells; conditions: positive control 40 mg/kg BW; P<0.01
# Description: 3.3 Mammalian red blood cell micronucleus test: 50 healthy, mature mice with weight of 25-30 g were selected, with half male and half female. The mice were randomly divided into 5 groups, 10 mice in each group, and half male and half female in each group. The experiment was conducted with three dose groups of 1.25, 2.5, and 5.0 g/kgBW Samples of 2.5, 5.0, and 10.0 g were weighed and prepared into 40 mL sample solutions using distilled water as the solvent. […] Mice were given test substance by oral gavage at a volume of 20 mL/kgBW, gavaged twice with an interval of 24 hours. Six hours after the second gavage, the animals were euthanized due to cervical dislocation. Sternal bone marrow was taken and made into bone marrow slices, fixed with methanol, and stained with Giemsa.
# 2000 polychromatic erythrocytes in each animal were observed and a frequency of micronucleus polychromatic erythrocytes (namely, micronucleus frequency) was counted, expressed in thousandths.
# [2] = system: mice with hyperuricemia induced by fructose and yeast diet; experiment: Model of hyperuricemia induced by fructose and yeast diet, serum uric acid; format: in vivo
# Excerpt: 1. Experimental animal: […] At the Experimental Animal Center of Qingdao University, all mice were placed in pathogen free facilities, maintained at appropriate temperature and relative humidity, followed by a 12-hour light and dark cycle, they freely ate and drank and clean bedding was replaced daily. 3. Method of modeling: 36 Balb/c male mice were divided into 6 groups, with 6 mice in each group. They were: […] Dissolving allopurinol and Antarctic red pigment in double distilled water and mixing well. […] Weights of each group of mice from day 0 onwards were recorded. 5. Uric acid testing: At Sam on days 14, 21, 28, and 35, mice were fasted for 12 hours and blood samples from the posterior orbital venous plexus of the mice were collected for uric acid testing. After the blood collection was completed, the blood was left at room temperature for one hour and centrifuged at a speed of 3000 rpm for 5 minutes to obtain a light-yellow upper serum.
# [3] = system: mice with hyperuricemia; experiment: Model of hyperuricemia induced by high purine (yeast extract plus oteracil potassium); format: in vivo; conditions: allopurinol treatment group 20 mg/kg gavage, 7 days, 5 mice per group
# Excerpt: 1. Experimental animal: Balb/c male mice, 6-8 weeks old, with weigh of 16-18 g were purchased from Sperford (Beijing) Biotechnology Co., Ltd. At the Experimental Animal Center of Qingdao University, all mice were placed in pathogen free facilities, maintained at appropriate temperature and relative humidity, followed by a 12-hour light and dark cycle, they freely ate and drank, and clean bedding was replaced daily.
# 3. […] From Day 5 to Day 7, except for the blank control group, the other four groups were given 0.1 ml (6 mg/animal) of oteracil potassium by intraperitoneal injection.
# [4] = after 14 days, Allopurinol group 20 mg/kg
SMILES,micronucleus frequency compared with negative control group [1],"uric acid level ([2]; 21st day, Allopurinol group 20 mg/kg)","uric acid level ([2]; 28th day, Allopurinol group 20 mg/kg)","uric acid level ([2]; 35th day, Allopurinol group 20 mg/kg)","increase of uric acid level compared with the control group [2, 4]","uric acid level lower than in the High uric acid model group [2, 4]","uric acid level ([2]; after 14 days, Allopurinol group 20 mg/kg gavage once a day)",deaths [3]
O=P1(N(CCCl)CCCl)NCCCO1 (centres unmarked) [cyclophosphamide],significantly higher,,,,,,,
Oc1ncnc2[nH]ncc12 [allopurinol],,247.2 ± 48.98 µmol/L,264.9 ± 54.87 µmol/L,215.8 ± 37.132 µmol/L,24.67%,30.39%,191.5 ± 21.95 µmol/L,no deaths
